According to patent US4410518A, “N-Phosphinoaminosulfinylcarbamate esters and their use as insecticides” (priority 1982, dated 1983):
Like-named read-outs stand apart in the source and are kept apart here.

Tests used:
[1] = system: house flies, Musca domestica; assay: insecticidal activity against house flies (topical, 24 h mortality); assay type: in vivo; settings: for LD50: Musca domestica, read-out: House flies LD50
Experimental: Representative carbamate esters of the invention were tested for insecticidal activity against house flies, Musca domestica. Stock 1% concentrated solutions of each of the test compounds were made in acetone, and such solutions diluted with acetone to a concentration of 0.001-0.1%. House flies were treated topically on the notum by 1 μl of each of the diluted acetone solutions and percent mortality was counted 24 hours after application. The insects were held at a constant temperature of 60° F. Results are given in μg/g.
(§1) In that table the term "LD50 " represents the dose needed to kill 50% of the test animals. In interpreting the values in Table 1 below, the lower the value for LD50 for house flies, the greater the insecticidal potency or toxicity of that particular compound. On the other hand, the higher the value of LD50 for mice, the lower the mammalian toxicity or the greater is the mammalian safety of such compound.

[2] = mammalian toxicity in mice (oral); settings: mouse, in vivo, corn oil carrier, Swiss white mice
Experimental: Mammalian toxicity was determined against Swiss white mice. The test compound was applied orally using corn oil as the carrier. Results are given as LD50 in mg of compound per kg body weight.
as §1

[3] = system: house flies, Musca domestica; settings: 'is known to have', no unit printed beside the value; cited from earlier work
[4] = topical on the notum, 1 μl acetone solution, 24 hours after application

Compound `CCOP(=S)(OCC)N(C)[S+]([O-])N(C)C(=O)Oc1cccc2c1OC(C)(C)C2` (centres unmarked) [Example 1, 2,3-dihydro-2,2-dimethyl-7-benzofuranyl[[(diethoxyphosphinothioyl)methylamino]sulfinyl]methylcarbamate] has an LD50 [1, 4] of 14 mg/kg and an LD50 [2] of 65 mg/kg.
`CCCN([S+]([O-])N(C)C(=O)Oc1cccc2c1OC(C)(C)C2)P(=S)(OCC)OCC` (centres unmarked) [Example 2, 2,3-dihydro-2,2-dimethyl-7-benzofuranyl[[(diethoxyphosphinothioyl)propylamino]sulfinyl]methylcarbamate] gave an LD50 [1, 4] of 16 mg/kg and an LD50 [2] of 60 mg/kg.
For `CCCCCCN([S+]([O-])N(C)C(=O)Oc1cccc2c1OC(C)(C)C2)P(=S)(OCC)OCC` (centres unmarked) [Example 3, 2,3-dihydro-2,2-dimethyl-7-benzofuranyl[[(diethoxyphosphinothioyl)hexylamino]sulfinyl]methylcarbamate], the “House flies LD50” value [1, 4] was 19 µg/g and the LD50 [2] was 140 mg/kg.
In the case of `CCCCCCCCCCCCN([S+]([O-])N(C)C(=O)Oc1cccc2c1OC(C)(C)C2)P(=S)(OCC)OCC` (centres unmarked) [Example 4, 2,3-dihydro-2,2-dimethyl-7-benzofuranyl[[(diethoxyphosphinothioyl)dodecylamino]sulfinyl]methylcarbamate], the LD50 [2] is reported as > 1000 mg/kg.
Work on `CN(C(=O)Oc1cccc2c1OC(C)(C)C2)[S+]([O-])N(C)P1(=S)OCC(C)(C)CO1` (centres unmarked) [Example 5, 2,3-Dihydro-2,2-dimethyl-7-benzofuranyl[[(5,5-dimethyl-2-thioxo-1,3,2-dioxaphosphorinan-2-yl)methylamino]sulfinyl]methylcarbamate] yielded an LD50 [1, 4] of 3 mg/kg and an LD50 [2] of 70 mg/kg.
With `CCCCCCN([S+]([O-])N(C)C(=O)Oc1cccc2c1OC(C)(C)C2)P1(=S)OCC(C)(C)CO1` (centres unmarked) [Example 6, 2,3-dihydro-2,2-dimethyl-7-benzofuranyl[[(5,5-dimethyl-2-thioxo-1,3,2-dioxaphosphorinan-2-yl)hexylamino]sulfinyl]methylcarbamate] the LD50 [2] was 105 mg/kg.
In the case of `CCOP(=O)(OCC)N(C)[S+]([O-])N(C)C(=O)Oc1cccc2c1OC(C)(C)C2` (centres unmarked) [Example 7, 2,3-dihydro-2,2-dimethyl-7-benzofuranyl[[(diethoxyphosphinyl)methylamino]sulfinyl]methylcarbamate], the LD50 ([1]; topical, 24 h) is reported as 19 mg/kg.
With `CCCN([S+]([O-])N(C)C(=O)Oc1cccc2c1OC(C)(C)C2)P(=O)(OCC)OCC` (centres unmarked) [Example 8, 2,3-dihydro-2,2-dimethyl-7-benzofuranyl[[(diethoxyphosphinyl)propylamino]sulfinyl]methylcarbamate] the LD50 [2] was 100 mg/kg.
In the case of `COP(=S)(OC)N(C)[S+]([O-])N(C)C(=O)ON=C(C)SC` (centres unmarked) [Example 9, methyl N-[[[[[(dimethoxyphosphinothioyl)methylamino]sulfinyl]methylamino]carbonyl]oxy]ethanimidothioate], the LD50 [1, 4] is reported as 24 mg/kg and the LD50 [2] is reported as 120 mg/kg.
For `CCN([S+]([O-])N(C)C(=O)ON=C(C)SC)P(=S)(OC)OC` (centres unmarked) [Example 10, methyl N-[[[[[(dimethoxyphosphinothioyl)ethylamino]sulfinyl]methylamino]carbonyl]oxy]ethanimidothioate], the LD50 [1, 4] was 14 mg/kg.
`CCOP(=S)(OCC)N(C)[S+]([O-])N(C)C(=O)ON=C(C)SC` (centres unmarked) [Example 11, methyl N-[[[[[(diethoxyphosphinothioyl)methylamino]sulfinyl]methylamino]carbonyl]oxy]ethanimidothioate] showed an LD50 [1, 4] of 12 mg/kg and an LD50 [2] of 130 mg/kg.
With `CCOP(=S)(OCC)N(CC)[S+]([O-])N(C)C(=O)ON=C(C)SC` (centres unmarked) [Example 12, methyl N-[[[[[(diethoxyphosphinothioyl)ethylamino]sulfinyl]methylamino]carbonyl]oxy]ethanimidothioate] the LD50 [1, 4] was 13 mg/kg.
`CCCN([S+]([O-])N(C)C(=O)ON=C(C)SC)P(=S)(OCC)OCC` (centres unmarked) [Example 13, methyl N-[[[[[(diethoxyphosphinothioyl)propylamino]sulfinyl]methylamino]carbonyl]oxy]ethanimidothioate] gave an LD50 [1, 4] of 8 mg/kg and an LD50 [2] of 120 mg/kg.
For `CCOP(=S)(OCC)N(C(C)C)[S+]([O-])N(C)C(=O)ON=C(C)SC` (centres unmarked) [Example 14, methyl N-[[[[[(diethoxyphosphinothioyl)isopropylamino]sulfinyl]methylamino]carbonyl]oxy]ethanimidothioate], the LD50 [1, 4] was 11 mg/kg.
In the case of `CCOP(=S)(OCC)N(C(C)CC)[S+]([O-])N(C)C(=O)ON=C(C)SC` (centres unmarked) [Example 15, methyl N-[[[[[(diethoxyphosphinothioyl)sec-butylamino]sulfinyl]methylamino]carbonyl]oxy]ethanimidothioate], the LD50 [1, 4] is reported as 10 mg/kg.
`CCOP(=S)(OCC)N(C1CCCC1)[S+]([O-])N(C)C(=O)ON=C(C)SC` (centres unmarked) [Example 16, methyl N-[[[[[(diethoxyphosphinothioyl)cyclopentylamino]sulfinyl]methylamino]carbonyl]oxy]ethanimidothioate] showed an LD50 [1, 4] of 12 mg/kg.
In the case of `CCCCCCN([S+]([O-])N(C)C(=O)ON=C(C)SC)P(=S)(OCC)OCC` (centres unmarked) [Example 17, Methyl N-[[[[[(diethoxyphosphinothioyl)hexylamino]sulfinyl]methylamino]carbonyl]oxy]ethanimidothioate], the LD50 [1, 4] is reported as 23 mg/kg and the LD50 [2] is reported as 250 mg/kg.
In the case of `CCOP(=S)(OCC)N(C1CCCCC1)[S+]([O-])N(C)C(=O)ON=C(C)SC` (centres unmarked) [Example 18, methyl N-[[[[[(diethoxyphosphinothioyl)cyclohexylamino]sulfinyl]methylamino]carbonyl]oxy]ethanimidothioate], the LD50 [1, 4] is reported as 18 mg/kg.
For `CSC(C)=NOC(=O)N(C)[S+]([O-])N(C)P1(=S)OCC(C)(C)CO1` (centres unmarked) [Example 19, methyl N-[[[[[(5,5-dimethyl-2-thioxo-1,3,2-dioxaphosphorinan-2-yl)(methyl)amino]sulfinyl]methylamino]carbonyl]oxy]ethanimidothioate], the LD50 [1, 4] was 58 mg/kg and the LD50 [2] was 200 mg/kg.
Compound `CCN([S+]([O-])N(C)C(=O)ON=C(C)SC)P1(=S)OCC(C)(C)CO1` (centres unmarked) [Example 20, methyl N-[[[[[(5,5-dimethyl-2-thioxo-1,3,2-dioxaphosphorinan-2-yl)(ethyl)amino]sulfinyl]methylamino]carbonyl]oxy]ethanimidothioate] has an LD50 [1, 4] of 120 mg/kg.
In the case of `CCOP(=S)(OCC)N(C)[S+]([O-])N(C)C(=O)ON=C(SC)C(=O)N(C)C` (centres unmarked) [Example 21, methyl 2-(dimethylamino)-N-[[[[[(diethoxyphosphinothioyl)methylamino]sulfinyl]methylamino]carbonyl]oxy]-2-oxoethanimidothioate], the LD50 [1, 4] is reported as 15 mg/kg and the LD50 [2] is reported as 23 mg/kg.
In the case of `CCOP(=S)(OCC)N(CC)[S+]([O-])N(C)C(=O)ON=C(SC)C(=O)N(C)C` (centres unmarked) [Example 22, methyl 2-(dimethylamino)-N-[[[[[(diethoxyphosphinothioyl)ethylamino]sulfinyl]methylamino]carbonyl]oxy]-2-oxoethanimidothioate], the LD50 [1, 4] is reported as 18 mg/kg.
In the case of `CCOP(=S)(OCC)N(C(C)C)[S+]([O-])N(C)C(=O)ON=C(SC)C(=O)N(C)C` (centres unmarked) [Example 23, methyl 2-(dimethylamino)-N-[[[[[(diethoxyphosphinothioyl)isopropylamino]sulfinyl]methylamino]carbonyl]oxy]-2-oxoethanimidothioate], the LD50 [1, 4] is reported as 10 mg/kg and the LD50 [2] is reported as 22 mg/kg.
For `CCOP(=S)(OCC)N(C1CCCC1)[S+]([O-])N(C)C(=O)ON=C(SC)C(=O)N(C)C` (centres unmarked) [Example 24, Methyl 2-(dimethylamino)-N-[[[[[(diethoxyphosphinothioyl)cyclopentylamino]sulfinyl]methylamino]carbonyl]oxy]-2-oxoethanimidothioate], the LD50 [1, 4] was 16 mg/kg.
With `CSC(=NOC(=O)N(C)[S+]([O-])N(C)P1(=S)OCC(C)(C)CO1)C(=O)N(C)C` (centres unmarked) [Example 25, methyl 2-(dimethylamino)-N-[[[[[(5,5-dimethyl-2-thioxo-1,3,2-dioxaphosphorinan-2-yl)(methyl)amino]sulfinyl]methylamino]carbonyl]oxy]-2-oxoethanimidothioate] the LD50 [1, 4] was 150 mg/kg and the LD50 [2] was 25 mg/kg.
For `CNC(=O)Oc1cccc2c1OC(C)(C)C2` [carbofuran, 2,3-dihydro-2,2-dimethyl-7-benzofuranyl methylcarbamate], the “LD50 for house flies (carbofuran, known)” value [3] is listed as “about 6.5”.
